# In ChEMBL document CHEMBL5370665, “Insight from Linker Investigations: Discovery of a Novel Phenylbenzothiazole Necroptosis Inhibitor Targeting Receptor-Interacting Protein Kinase 1 (RIPK1) from a Phenoxybenzothiazole Compound with Dual RIPK1/3 Targeting Activity” (J Med Chem, 2023):
# pKd: −log10 of the molar value. Activity calls are given as the source filed them. The rule behind the calls is not given here.
# Legend:
# [1] = Acute toxicity in mouse assessed as pathological damage in brain at 100 to 200 mg/kg,IG and measured after 14 days by H and E staining based microscopy; type: organism-based; conditions: in vivo, po, 336 h, dose 100-200 mg/kg, time 14 day
# [2] = Acute toxicity in mouse assessed as pathological damage in liver at 100 to 200 mg/kg,IG and measured after 14 days by H and E staining based microscopy; type: organism-based; conditions: in vivo, po, 336 h, dose 100-200 mg/kg, time 14 day
# [3] = test system: Mus musculus; assay: Anti-inflammatory activity against C57BL/6J mouse model of TNFalpha-induced systemic inflammatory response syndrome (SIRS) assessed as decrease in IL-6 level in brain at 1.25 to 5 mg/kg,po 2 hrs prior to mTNFalpha and z-VAD-FMK stimulation for 8 hrs by ELISA; type: functional, organism-based; conditions: dose 1.25-5 mg/kg, time 10.0 hrs
# [4] = test system: Mus musculus; assay: Anti-inflammatory activity against C57BL/6J mouse model of TNFalpha-induced systemic inflammatory response syndrome (SIRS) assessed as decrease in IL-6 level in intestine at 1.25 to 5 mg/kg,po 2 hrs prior to mTNFalpha and z-VAD-FMK stimulation for 8 hrs by ELISA; type: functional, organism-based; conditions: dose 1.25-5 mg/kg, time 10.0 hrs
# [5] = Acute toxicity in mouse assessed as pathological damage in spleen at 100 to 200 mg/kg,IG and measured after 14 days by H and E staining based microscopy; type: organism-based; conditions: in vivo, po, 336 h, dose 100-200 mg/kg, time 14 day
# [6] = test system: HT-29; assay: Anti-apoptotic activity against human HT-29 cells assessed as inhibition of TC (human TNFalpha, cycloheximide) induced apoptosis upto 20 uM pretreated with compound followed by TC stimulation for 36 hrs by CellTiter-Glo Luminescent cell viability assay; type: functional, cell-based
# [7] = biological target: T1, Mixed lineage kinase domain-like protein (Homo sapiens) (UniProt Q8NB16); assay: Inhibition of MLKL phosphorylation in TSZ induced human HT-29 cells at 1 uM pretreated with compound followed by TSZ stimulation for 6 hrs by Western blot analysis; type: cell-based
# T1 sequence (whole entry): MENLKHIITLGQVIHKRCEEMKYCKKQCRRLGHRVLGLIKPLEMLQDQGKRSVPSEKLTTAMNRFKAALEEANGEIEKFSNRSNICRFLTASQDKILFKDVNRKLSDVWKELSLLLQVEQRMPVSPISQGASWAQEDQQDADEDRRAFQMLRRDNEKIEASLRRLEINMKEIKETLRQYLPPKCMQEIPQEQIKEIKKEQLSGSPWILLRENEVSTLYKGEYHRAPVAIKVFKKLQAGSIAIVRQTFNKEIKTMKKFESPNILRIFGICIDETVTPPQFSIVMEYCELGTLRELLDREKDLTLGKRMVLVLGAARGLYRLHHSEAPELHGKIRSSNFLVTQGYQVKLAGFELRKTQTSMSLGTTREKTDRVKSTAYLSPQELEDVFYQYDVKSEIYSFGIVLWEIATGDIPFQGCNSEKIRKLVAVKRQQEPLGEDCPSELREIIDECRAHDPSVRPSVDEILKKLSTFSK
# [8] = Acute toxicity in mouse assessed as pathological damage in lung at 100 to 200 mg/kg,IG and measured after 14 days by H and E staining based microscopy; type: organism-based; conditions: in vivo, po, 336 h, dose 100-200 mg/kg, time 14 day
# [9] = test system: Mus musculus; assay: Anti-inflammatory activity against C57BL/6J mouse model of TNFalpha-induced systemic inflammatory response syndrome (SIRS) assessed as decrease in IL-1beta level in liver at 1.25 to 5 mg/kg,po 2 hrs prior to mTNFalpha and z-VAD-FMK stimulation for 8 hrs by ELISA; type: functional, organism-based; conditions: dose 1.25-5 mg/kg, time 10.0 hrs
# [10] = Cytotoxicity against human HT-29 cells assessed as reduction in cell viability incubated for 16 to 24 hrs by CellTiter-Glo Luminescent cell viability assay; type: toxicity, cell-based; conditions: time 16-24 hrs
# [11] = Acute toxicity in mouse assessed as death at 100 to 200 mg/kg,IG and measured upto 14 days; type: organism-based; conditions: in vivo, po, 336 h, dose 100-200 mg/kg, time < 14 day
# [12] = test system: Mus musculus; assay: Anti-inflammatory activity against C57BL/6J mouse model of TNFalpha-induced systemic inflammatory response syndrome (SIRS) assessed as increase in survival rate at 2.5 mg/kg,po 2 hrs prior to mTNFalpha and z-VAD-FMK stimulation and measured upto 24 hrs; type: functional; conditions: time 26 hrs
# [13] = test system: Mus musculus; assay: Anti-inflammatory activity against C57BL/6J mouse model of TNFalpha-induced systemic inflammatory response syndrome (SIRS) assessed as decrease in IL-6 level in heart at 1.25 to 5 mg/kg,po 2 hrs prior to mTNFalpha and z-VAD-FMK stimulation for 8 hrs by ELISA; type: functional, organism-based; conditions: dose 1.25-5 mg/kg, time 10.0 hrs
# [14] = biological target: Receptor-interacting serine/threonine-protein kinase 3 (Homo sapiens, UniProt Q9Y572); assay: Inhibition of RIPK3 phosphorylation in TSZ induced human HT-29 cells at 1 to 1000 nM pretreated with compound followed by TSZ stimulation for 6 hrs by Western blot analysis; type: cell-based; conditions: dose 1-1000 nM
# Sequence of Receptor-interacting serine/threonine-protein kinase 3 (Q9Y572 whole entry, looked up): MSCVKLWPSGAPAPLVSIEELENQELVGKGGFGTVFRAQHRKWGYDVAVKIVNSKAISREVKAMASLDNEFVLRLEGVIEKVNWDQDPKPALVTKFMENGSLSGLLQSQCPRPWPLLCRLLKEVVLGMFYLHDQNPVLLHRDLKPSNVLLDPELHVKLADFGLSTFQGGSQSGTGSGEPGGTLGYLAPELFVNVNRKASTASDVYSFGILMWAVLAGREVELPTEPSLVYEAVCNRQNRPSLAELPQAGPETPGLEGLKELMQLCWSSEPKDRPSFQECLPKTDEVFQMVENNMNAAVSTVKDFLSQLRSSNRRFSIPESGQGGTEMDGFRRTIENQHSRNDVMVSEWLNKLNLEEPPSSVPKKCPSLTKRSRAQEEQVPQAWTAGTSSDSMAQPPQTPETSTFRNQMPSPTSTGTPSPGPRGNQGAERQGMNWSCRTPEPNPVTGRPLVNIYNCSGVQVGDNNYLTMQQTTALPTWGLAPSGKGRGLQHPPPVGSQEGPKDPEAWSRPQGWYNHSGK
# [15] = test system: L929; assay: Anti-necroptic activity against mouse L929 cells assessed as inhibition of […] (mouse TNFalpha, z-VAD-FMK) induced necroptosis at 15 to 500 nM pretreated with compound followed by TZ stimulation for 6 hrs by CellTiter-Glo Luminescent cell viability assay; type: functional, cell-based; conditions: dose lower […], dose upper 500.0 nM
# [16] = test system: Mus musculus; assay: Anti-inflammatory activity against C57BL/6J mouse model of TNFalpha-induced systemic inflammatory response syndrome (SIRS) assessed as increase in body temperature at 5 mg/kg,po 2 hrs prior to mTNFalpha and z-VAD-FMK stimulation and measured upto 18 hrs by electric thermometer analysis; type: functional, organism-based; conditions: time 20.0 hrs
# [17] = biological target: T2, Receptor-interacting serine/threonine-protein kinase 1 (Homo sapiens, UniProt Q13546); assay: Binding affinity to recombinant RIPK1 (unknown origin) assessed as dissociation constant incubated for 1 hr by KINOMEscanTM assay
# T2 sequence (Q13546 whole entry): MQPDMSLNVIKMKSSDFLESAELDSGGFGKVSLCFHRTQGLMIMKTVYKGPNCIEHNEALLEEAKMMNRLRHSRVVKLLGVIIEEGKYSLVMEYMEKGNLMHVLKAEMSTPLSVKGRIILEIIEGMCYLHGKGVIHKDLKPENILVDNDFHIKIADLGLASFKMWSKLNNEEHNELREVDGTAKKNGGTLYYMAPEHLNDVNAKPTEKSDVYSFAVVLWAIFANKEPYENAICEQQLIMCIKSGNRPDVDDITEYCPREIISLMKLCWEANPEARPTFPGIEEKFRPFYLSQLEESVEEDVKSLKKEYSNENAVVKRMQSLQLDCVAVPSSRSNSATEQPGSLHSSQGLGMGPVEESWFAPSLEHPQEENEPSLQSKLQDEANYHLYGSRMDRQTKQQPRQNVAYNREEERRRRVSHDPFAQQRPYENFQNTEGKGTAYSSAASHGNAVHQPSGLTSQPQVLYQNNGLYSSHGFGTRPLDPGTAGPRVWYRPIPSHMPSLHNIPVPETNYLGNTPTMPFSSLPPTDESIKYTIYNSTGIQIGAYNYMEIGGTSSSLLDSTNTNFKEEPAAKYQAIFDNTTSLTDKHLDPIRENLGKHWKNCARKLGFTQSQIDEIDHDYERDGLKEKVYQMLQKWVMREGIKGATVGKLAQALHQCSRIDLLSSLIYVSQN
smiles,measurement,setting,value
O=C(Cc1cccc(OC(F)(F)F)c1)Nc1cc(-c2ccc3nc(NC(=O)C4CC4)sc3c2)ccc1F,Activity,[1],Non-Toxic
same,Activity,[2],Non-Toxic
same,Activity,[3],Dose-Dependent Effect
same,Activity,[4],Dose-Dependent Effect
same,Activity,[5],Non-Toxic
same,Activity,[6],inactive
same,inhibition,[7],Active
same,Activity,[8],Non-Toxic
same,Activity,[9],inactive
same,CC50,[10],> 10000 nM
same,Activity,[11],Non-Toxic
same,survival at 2.5 mg/kg,[12],80%
same,Activity,[13],Dose-Dependent Effect
same,inhibition,[14],Dose-Dependent Effect
same,Activity,[15],Active
same,Activity,[16],Active
same,pKd,[17],7.77
